{"source": "patent US12121561B1", "about": "“Composition for treating or preventing insulin resistance” (KING FAISAL UNIVERSITY, priority 2024, dated 2024)", "key": {"NO production": {"tested_on": "NO production", "assay": "NO production with recombinant vWF protein"}, "glucose uptake": {"tested_on": "glucose uptake", "assay": "Glucose uptake with recombinant vWF protein"}}, "data": [{"substance": "recombinant vWF protein: a recombinant vWF protein with a specific vWF sequence (SEQ ID NO: 1) (EPECNDITARLQYVKVGSCKSEVEVDIHYCQGKCASKAMYSIDINDVQDQCSC; listed as Homo sp.)", "values": [{"measurement": "NO production", "setting": "NO production", "result": "significantly inhibit"}, {"measurement": "glucose uptake", "setting": "glucose uptake", "result": "significantly inhibit"}]}]}
